In the supplement of paper PMC10307832:

Key:
Test in all cases: relative viability (nuclei count vs DMSO), 5 days (fraction); higher = more cells survive
[1] = compound: N#CC[C@H](C1CCCC1)n1cc(-c2ncnc3[nH]ccc23)cn1 [Ruxolitinib] + N=C(N)NC(=N)NCCc1ccccc1 [Phenformin] (partner 250 µM)
Method in brief: (§1)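 Relative viability equals treated-well nuclei counts divided by vehicle-well nuclei counts. Counts came from 4× images of lung cancer cell lines grown in 1536-well plates for 5 days after pin-tool dosing on the day after seeding. Dosing used one drug alone or a fixed anchor-drug dose plus five library-drug doses (not always all listed) in √10 steps, and values are medians of duplicate plates.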

[2] = compound: N#CC[C@H](C1CCCC1)n1cc(-c2ncnc3[nH]ccc23)cn1 [Ruxolitinib] + COc1cccc2cc(-c3nc([C@H]4CC[C@H](C(=O)O)CC4)n4ncnc(N)c34)[nH]c12 [OSI-027] (partner 0.5 µM)
Method in brief: as §1

[3] = compound: CS(=O)(=O)c1ccc(C(=O)Nc2ccc(Cl)c(-c3ccccn3)c2)c(Cl)c1 [Vismodegib] + NC(=O)Nc1cc(-c2cccc(F)c2)sc1C(=O)N[C@H]1CCCNC1 [AZD7762] (partner 0.2 µM)
Method in brief: as §1

[4] = compound: CS(=O)(=O)c1ccc(-c2cnc(N)c(C(=O)Nc3ccccc3)n2)cc1 [VE-821] + COc1cccc2cc(-c3nc([C@H]4CC[C@H](C(=O)O)CC4)n4ncnc(N)c34)[nH]c12 [OSI-027] (partner 0.5 µM)
Method in brief: as §1

Cell Line | relative viability ([1]; first compound 0.08 µM) | relative viability ([1]; first compound 0.253 µM) | relative viability ([1]; first compound 0.8 µM) | relative viability ([1]; first compound 2.53 µM) | relative viability ([1]; first compound 8 µM) | relative viability ([2]; first compound 0.08 µM) | relative viability ([2]; first compound 0.253 µM) | relative viability ([2]; first compound 0.8 µM) | relative viability ([2]; first compound 2.53 µM) | relative viability ([2]; first compound 8 µM) | relative viability ([3]; first compound 0.08 µM) | relative viability ([3]; first compound 0.253 µM) | relative viability ([3]; first compound 0.8 µM) | relative viability ([3]; first compound 2.53 µM) | relative viability ([3]; first compound 8 µM) | relative viability ([4]; first compound 0.08 µM) | relative viability ([4]; first compound 0.253 µM) | relative viability ([4]; first compound 0.8 µM) | relative viability ([4]; first compound 2.53 µM) | relative viability ([4]; first compound 8 µM)
HCC-78 | 0.756 | 0.563 | 0.788 | 0.662 | 0.729 | 0.36 | 0.337 | 0.33 | 0.383 | 0.365 | 0.575 | 0.605 | 0.544 | 0.542 | 0.634 | 0.385 | 0.349 | 0.372 | 0.401 | 0.326
LXF-289 | 0.509 | 0.492 | 0.538 | 0.491 | 0.497 | 0.776 | 0.79 | 0.789 | 0.698 | 0.624 | 1.02 | 1.1 | 1.1 | 1.09 | 1.08 | 0.949 | 0.726 | 0.902 | 0.971 | 0.759
NCI-H460 | 0.484 | 0.54 | 0.549 | 0.443 | 0.445 | 0.686 | 0.575 | 0.721 | 0.583 | 0.615 | 0.583 | 0.56 | 0.576 | 0.535 | 0.724 | 0.814 | 0.628 | 0.409 | 0.292 | 0.0463
NCI-H1734 | 0.382 | 0.342 | 0.472 | 0.36 | 0.432 | 0.586 | 0.491 | 0.671 | 0.417 | 0.637 | 0.575 | 0.447 | 0.552 | 0.556 | 0.488 | 0.701 | 0.529 | 0.599 | 0.529 | 0.331
PC-3 [JPC-3] | 0.428 | 0.477 | 0.477 | 0.443 | 0.481 | 0.756 | 0.702 | 0.811 | 0.704 | 0.672 | 0.824 | 0.715 | 0.743 | 0.729 | 0.708 | 0.89 | 0.724 | 0.887 | 0.829 | 0.749
HCC-827 |  | 0.35 | 0.32 | 0.304 | 0.411 |  | 0.516 | 0.586 | 0.537 | 0.714 | 0.278 | 0.183 | 0.258 | 0.168 | 0.169 | 0.845 | 0.865 | 0.886 | 0.838 | 0.683
NCI-H2405 |  | 0.36 | 0.404 | 0.308 | 0.312 |  | 0.503 | 0.684 | 0.623 | 0.468 | 0.739 | 0.711 | 0.637 | 0.706 | 0.73 | 0.634 | 0.632 | 0.628 | 0.751 | 0.686
NCI-H522 | 0.663 | 0.644 | 0.728 | 0.575 | 0.617 | 0.811 | 0.667 | 0.78 | 0.628 | 0.605 | 1.06 | 0.875 | 0.849 | 0.81 | 0.857 | 0.718 | 0.779 | 0.76 | 0.65 | 0.677
HOP-62 | 0.678 | 0.629 | 0.699 | 0.668 | 0.63 | 0.874 | 0.724 | 0.91 | 0.825 | 0.824 | 0.591 | 0.41 | 0.798 | 0.691 | 0.423 | 1.04 | 0.809 | 0.73 | 0.925 | 0.697
LCLC-97TM1 | 0.438 | 0.43 | 0.507 | 0.428 | 0.378 | 0.502 | 0.3 | 0.362 | 0.488 | 0.563 | 0.292 | 0.262 | 0.327 | 0.297 | 0.286 | 0.564 | 0.506 | 0.669 | 0.786 | 0.668
NCI-H3122 |  | 0.429 | 0.378 | 0.327 | 0.318 |  | 0.296 | 1.22 | 0.51 | 0.569 | 0.959 | 0.953 | 0.959 | 0.965 | 0.955 | 1.01 | 0.958 | 1 | 1.08 | 0.758
PC-14 |  | 0.436 | 0.518 | 0.566 | 0.604 |  | 0.949 | 1.22 | 0.608 | 0.543 | 0.301 | 0.326 | 0.458 | 0.272 | 0.353 | 1.01 | 0.762 | 0.913 | 0.824 | 0.336
NCI-H2170 | 0.382 | 0.391 | 0.417 | 0.374 | 0.351 | 0.659 | 0.68 | 0.713 | 0.567 | 0.667 | 0.913 | 0.838 | 0.974 | 0.866 | 0.909 | 0.638 | 0.757 | 0.732 | 0.648 | 0.636
HCC-366 | 0.584 | 0.654 | 0.667 | 0.542 | 0.472 | 0.984 | 0.771 | 1.01 | 0.819 | 0.828 | 0.269 | 0.217 | 0.292 | 0.258 | 0.373 | 0.931 | 0.789 | 0.605 | 0.492 | 0.138
HARA | 0.431 | 0.536 | 0.516 | 0.391 | 0.319 | 0.727 | 0.372 | 0.601 | 0.416 | 0.481 | 0.462 |  | 0.309 | 0.244 | 0.417 | 0.75 | 0.434 | 0.497 | 0.76 | 0.392
SW 900 | 0.532 | 0.624 | 0.702 | 0.543 | 0.457 | 0.552 | 0.495 | 0.757 | 0.585 | 0.496 | 0.474 | 0.539 | 0.689 |  | 0.61 | 0.459 | 0.444 | 0.527 | 0.552 | 0.382
NCI-H1395 | 0.435 | 0.418 | 0.489 | 0.455 | 0.408 | 0.578 | 0.576 | 0.661 | 0.564 | 0.666 | 0.42 | 0.397 | 0.412 | 0.455 | 0.41 | 0.684 | 0.605 | 0.607 | 0.639 | 0.484
EMC-BAC-2 | 0.534 | 0.471 | 0.555 | 0.44 | 0.353 | 0.391 | 0.344 | 0.358 | 0.359 | 0.224 | 1.16 | 1.1 | 1.06 | 1.07 | 1.08 | 0.398 | 0.319 | 0.372 | 0.388 | 0.346
NCI-H1666 | 0.606 | 0.538 | 0.519 | 0.564 | 0.512 | 0.877 | 0.842 | 0.864 | 0.782 | 0.968 | 0.878 | 0.772 | 0.882 | 0.751 | 0.827 | 0.903 | 0.785 | 0.948 | 0.936 | 0.703
H3255 | 0.232 | 0.339 | 0.289 | 0.295 | 0.405 | 0.371 | 0.492 | 0.624 | 0.591 | 0.585 | 0.951 | 0.886 | 0.818 | 0.785 | 0.853 | 0.603 | 0.584 | 0.637 | 0.606 | 0.566
NCI-H1793 | 0.361 | 0.345 | 0.368 | 0.338 | 0.304 | 0.346 | 0.239 | 0.374 | 0.253 | 0.26 |  | 0.569 | 0.409 | 0.389 | 0.327 | 0.247 | 0.305 | 0.232 | 0.272 | 0.242
NCI-H1755 | 0.613 | 0.586 | 0.575 | 0.527 | 0.526 | 0.748 | 0.732 | 0.683 | 0.606 | 0.566 | 0.453 | 0.568 | 0.515 | 0.449 | 0.41 | 0.795 | 0.709 | 0.636 | 0.755 | 0.632
LOU-NH91 |  | 0.708 | 0.765 | 0.63 | 0.747 |  | 0.733 | 0.729 | 0.746 | 0.686 | 0.802 | 0.752 | 0.727 | 0.771 | 0.789 | 0.731 | 0.71 | 0.766 | 0.778 | 0.747
NCI-H1975 | 0.43 | 0.394 | 0.423 | 0.384 | 0.269 | 0.734 | 0.699 | 0.639 | 0.485 | 0.473 | 0.689 | 0.649 | 0.642 | 0.729 | 0.631 | 0.901 | 0.589 |  | 0.471 | 0.439
NCI-H727 | 0.505 | 0.55 | 0.576 | 0.599 | 0.848 | 0.557 | 0.482 | 0.817 | 0.472 | 0.524 | 0.594 | 0.691 | 0.677 | 0.448 | 0.661 | 0.721 | 0.624 | 0.619 | 0.54 | 0.355
CAL-12T | 0.437 | 0.674 | 0.596 | 0.444 | 0.408 | 0.598 | 0.623 | 0.812 | 0.524 | 0.442 | 0.643 | 0.559 | 0.607 | 0.577 | 0.664 | 0.529 | 0.612 | 0.489 | 0.423 | 0.483
NCI-H441 | 0.769 | 0.743 | 1.13 | 0.688 | 0.651 | 0.675 | 0.471 | 0.836 | 0.56 | 0.521 | 1.1 |  | 1.05 | 1.01 | 1.03 | 0.718 | 0.641 | 0.644 | 0.72 | 0.583
NCI-H1944 | 0.201 | 0.202 | 0.215 | 0.164 | 0.151 | 0.398 | 0.38 | 0.368 | 0.374 | 0.408 | 0.492 | 0.557 | 0.408 |  | 0.505 | 0.441 | 0.354 | 0.383 | 0.463 | 0.328
RERF-LC-KJ | 0.349 | 0.418 | 0.426 | 0.42 | 0.332 | 0.56 | 0.442 | 0.685 | 0.537 | 0.536 | 1.09 | 0.881 | 0.959 | 0.974 | 0.967 | 0.548 | 0.523 | 0.535 | 0.614 | 0.49
NCI-H838 | 0.602 | 0.54 | 0.465 | 0.266 | 0.263 | 0.39 | 0.318 | 0.386 | 0.266 | 0.267 | 0.799 | 0.876 | 0.918 | 0.888 | 0.975 | 0.431 | 0.341 | 0.329 | 0.425 | 0.435
